Results published in patent US20250208137A1, “COMPOUNDS FOR THE DETECTION AND INHIBITION OF COAGULATION PROTEASES” (Politechnika Wroclawska, priority 2022, published 2025).
Starred links: 1 amine or outer side, 2 acyl side, 3 side chain; linkers in the order of their positions; H or OH if unused. Non-standard residues stand in square brackets, D forms with d. Primed or numbered codes have the meaning given here. *: point of attachment. Tyr(2,6Cl2-Z) = 2,6-dichlorobenzyl-L-tyrosine, O=C([C@H](Cc1ccc(OCc2c(Cl)cccc2Cl)cc1)N[*:1])[*:2]; Glu(Bzl) = L-glutamic acid benzyl ester, O=C(CC[C@H](N[*:1])C(=O)[*:2])OCc1ccccc1; diphenyl phosphonate = C-terminal diphenyl phosphonate (Arg^P(OPh)2); BODIPY(FL) = CC1=CC(C)=[N+]2C1=Cc1ccc(CCC(=O)*)n1[B-]2(F)F; 1Nal = N[C@@H](Cc1cccc2ccccc12)C(=O)O; ACC = NC(=O)Cc1cc(=O)oc2cc(N*)ccc12; Igl = N[C@H](C(=O)O)C1Cc2ccccc2C1; hArg = N=C(N)NCCCC[C@H](N)C(=O)O; Agp = N=C(N)NC[C@H](N)C(=O)O; PEG4′ = PEG linker, 4 units; Nle = CCCC[C@H](N)C(=O)O; Dab = NCC[C@H](N)C(=O)O; Cbz = O=C(OCc1ccccc1)*; Cy3 = Cy3 fluorophore; Ahx = NCCCCCC(=O)O

What was measured:
Assay type in all cases: biochemical
fXa = fXa (Homo sapiens, UniProt P00742); test: Inhibition kinetics (kobs/I) under pseudo first-order conditions, fXa; conditions: 10 nM fXa, substrate 50 μM SMII18, pH 7.4, 37° C.
Description: (§1) The Kobs/l parameters towards APC, fIIa, fXa, and fXIa were measured under pseudo first-order conditions (Table 1). The assay buffer contained 20 mM Tris-base, 150 mM NaCl, 5 mM CaCl2), pH 7.4. Each ABP or inhibitor was serially diluted until the seventh well to obtain the concentrations ranging from 308 nM to 100 µM, depending on the ABP/inhibitor used. The assay conditions were as follows: 20 μL of selected substrate (154 μM SMA5 for APC, 100 μM SMA4 for fIIa, 50 μM SMII18 for fXa, and 100 μM SMX1 for fXIa) was added into the wells containing 20 μL of seven different ABP/inhibitor concentrations. Next, 60 μL of APC, fIIa, fXa, or fXIa (at the concentration of 10 nM) preincubated for 15 min at 37° C. was added, and the fluorescence increase over time was measured (λex=355 nm, λem=460 nm) for 30 min. The Kobs/l values were calculated using GraphPad Prism and Microsoft Excel software as described previously.

APC [1] = target: T1, APC (Homo sapiens, UniProt P04070); test: Kinetic parameters (kcat/KM) of fluorogenic substrates, APC; conditions: APC versus other coagulation factors
Description: The Kcat/KM parameters towards APC, thrombin and fXa were measured using the procedure described in Modrzycka et al. Chemical Science, 2022, 13, 6813-6829.

APC [2] = target: T1, APC; test: Screen of APC tetrapeptide fluorogenic substrates; conditions: for activity and selectivity for APC in the substrate screen: out of substrates SMA1-SMA26
Description: (§2) To minimize potential cross reactivity, a detailed kinetic analysis of the four APC-selective substrates was performed against the other proteases.

[3] = tested on: other coagulation factors; test: Substrate hydrolysis by other coagulation factors
Description: as §2

APC [4] = target: T1, APC; test: Inhibition kinetics (kobs/I) under pseudo first-order conditions, APC; conditions: 10 nM APC, substrate 154 μM SMA5, pH 7.4, 37° C.
Description: as §1

fXIa = fXIa (Homo sapiens, UniProt P03951); test: Inhibition kinetics (kobs/I) under pseudo first-order conditions, fXIa; conditions: 10 nM fXIa, substrate 100 μM SMX1, pH 7.4, 37° C.
Description: as §1

fIIa = fIIa (Homo sapiens, UniProt P00734); test: Inhibition kinetics (kobs/I) under pseudo first-order conditions, fIIa; conditions: 10 nM fIIa, substrate 100 μM SMA4, pH 7.4, 37° C.
Description: as §1

T1 sequence (P04070 212-461 limits assumed): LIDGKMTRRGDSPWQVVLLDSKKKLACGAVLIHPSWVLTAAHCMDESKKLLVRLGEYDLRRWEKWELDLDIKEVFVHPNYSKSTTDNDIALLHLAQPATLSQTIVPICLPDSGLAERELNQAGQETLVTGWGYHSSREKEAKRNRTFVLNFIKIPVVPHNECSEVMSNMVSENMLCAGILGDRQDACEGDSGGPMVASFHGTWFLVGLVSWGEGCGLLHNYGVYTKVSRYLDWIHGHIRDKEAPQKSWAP
T1 sequence (P04070 43-197 partner limits assumed): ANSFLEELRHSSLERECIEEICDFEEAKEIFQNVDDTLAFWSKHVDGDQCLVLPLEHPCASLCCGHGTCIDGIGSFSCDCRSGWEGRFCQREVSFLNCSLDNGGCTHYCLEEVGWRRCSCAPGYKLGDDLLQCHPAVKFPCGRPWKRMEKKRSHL
Chain of fXa (P00742 235-488 limits assumed): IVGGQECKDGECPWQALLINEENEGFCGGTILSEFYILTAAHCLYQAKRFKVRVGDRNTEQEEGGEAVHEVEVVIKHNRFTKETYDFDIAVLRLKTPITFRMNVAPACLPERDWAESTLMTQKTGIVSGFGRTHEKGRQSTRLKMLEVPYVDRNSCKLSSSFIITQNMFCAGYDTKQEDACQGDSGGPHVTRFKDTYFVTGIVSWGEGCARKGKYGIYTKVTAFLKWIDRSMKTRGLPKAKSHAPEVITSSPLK
Chain of fXa (P00742 41-179 partner limits assumed): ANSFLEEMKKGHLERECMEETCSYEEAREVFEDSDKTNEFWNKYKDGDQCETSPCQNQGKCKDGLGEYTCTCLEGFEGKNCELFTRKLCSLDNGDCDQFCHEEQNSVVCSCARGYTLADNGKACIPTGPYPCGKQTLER
Chain of fXIa (P03951 388-625 limits assumed): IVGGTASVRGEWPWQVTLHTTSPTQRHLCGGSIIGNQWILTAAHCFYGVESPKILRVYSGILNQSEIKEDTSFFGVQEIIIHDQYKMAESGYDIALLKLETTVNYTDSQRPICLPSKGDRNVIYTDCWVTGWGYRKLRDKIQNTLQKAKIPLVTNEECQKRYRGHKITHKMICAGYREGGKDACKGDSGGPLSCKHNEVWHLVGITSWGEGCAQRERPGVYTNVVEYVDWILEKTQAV
Chain of fXIa (P03951 19-387 partner limits assumed): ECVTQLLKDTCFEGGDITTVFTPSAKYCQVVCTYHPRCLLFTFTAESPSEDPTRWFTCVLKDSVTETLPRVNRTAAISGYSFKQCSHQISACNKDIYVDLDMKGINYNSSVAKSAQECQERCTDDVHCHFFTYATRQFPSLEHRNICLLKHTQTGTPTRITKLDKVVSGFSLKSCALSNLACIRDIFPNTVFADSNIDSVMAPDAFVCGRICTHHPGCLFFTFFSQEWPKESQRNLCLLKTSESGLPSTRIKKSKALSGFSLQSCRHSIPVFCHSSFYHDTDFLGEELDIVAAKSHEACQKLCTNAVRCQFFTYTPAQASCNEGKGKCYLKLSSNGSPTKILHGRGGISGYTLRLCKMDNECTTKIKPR

Ac-DPro-hArg-1-Nal-Arg^P(OPh)2 (Ac-[dP][hArg][1Nal]R-{diphenyl phosphonate}) [I-SMX15]
kobs/I fXa (fXa): 1,200 ± 100 M^−1s^−1

Ac-K[Dab](Cbz)KR-{ACC} [SMA 17]
Kcat/KM selectivity ratio (APC [1]): very high
activity and selectivity for APC in the substrate screen (APC [2]): showed the most activity and selectivity for APC
hydrolysis when tested with other coagulation factors [3]: almost nondetectable

Ac-K[Dab](Cbz)[Igl]R-{ACC} [SMA 5]
activity and selectivity for APC in the substrate screen (APC [2]): showed the most activity and selectivity for APC
cleavage efficiency compared to the best natural substrate (SMA54) (APC [2]; relative to SMA54): approximately 50 fold

Ac-Lys-Agp-Igl-Arg-ACC (Ac-K[Agp][Igl]R-{ACC}; SMILES CC(=O)N[C@@H](CCCCN)C(=O)N[C@@H](CNC(=N)N)C(=O)N[C@H](C(=O)N[C@@H](CCCNC(=N)N)C(=O)Nc1ccc2c(CC(N)=O)cc(=O)oc2c1)C1Cc2ccccc2C1) [SMA 6, fluorogenic substrate for APC]
activity and selectivity for APC in the substrate screen (APC [2]): showed the most activity and selectivity for APC

Ac-Lys-Dab(Z)-Lys-Arg^P(OPh)2 [I-SMA17]
kobs/I APC (APC [4]): 1,980 ± 20 M^−1s^−1

Ac-Tyr(2,6Cl2-Z)-Nle-Glu(Bzl)-Arg^P(OPh)2 (Ac-[Tyr(2,6Cl2-Z)][Nle][Glu(Bzl)]R-{diphenyl phosphonate}) [I-SMXI5]
kobs/I fXIa (fXIa): 54,700 ± 2,800 M^−1s^−1

Ac-hCha-Cys(MeBzl)-Pip-Arg^P(OPh)2 [I-SMII22]
kobs/I fIIa (fIIa): 209,000 ± 13,800 M^−1s^−1

Bodipy-PEG(4)-Tyr(2,6Cl2-Z)-Nle-Glu(Bzl)-Arg^P(OPh)2 ({BODIPY(FL)-PEG4′}-[Tyr(2,6Cl2-Z)][Nle][Glu(Bzl)]R-{diphenyl phosphonate}) [P-SMXI52]
kobs/I fXIa (fXIa): 3,120 ± 100 M^−1s^−1

Cy3-6-Ahx-DPro-hArg-1-Nal-Arg^P(OPh)2 ({Cy3-Ahx}-[dP][hArg][1Nal]R-{diphenyl phosphonate}) [P-SMX152]
kobs/I fXa (fXa): 1,800 ± 100 M^−1s^−1

Cy5-6-Ahx-Lys-Dab(Z)-Lys-Arg^P(OPh)2 [P-SMA172]
kobs/I APC (APC [4]): 2,250 ± 170 M^−1s^−1

Cy7-6-Ahx-hCha-Cys(MeBzl)-Pip-Arg^P(OPh)2 [P-SMII222]
kobs/I fIIa (fIIa): 3,500 ± 300 M^−1s^−1
